From US20260306496A1, “CDK2 INHIBITOR PYRAZOLOPYRIMIDINE COMPOUNDS” (ALEKSIA THERAPEUTICS, INC., priority 2023, published 2026)
pIC50: −log10 of the molar value. Where a name gives a salt, the structure may show the parent alone. Read-outs that look alike come from different tables or passages of the source.

Target: CDK2/CCNE1 (Homo sapiens, UniProt P24941)
Experiment: CDK2 homogeneous time-resolved fluorescence (HTRF) assay
Assay type: biochemical
Settings: 3 nM CDK2/CCNE1, 1 mM ATP, 50 nM ULight-eIF4E-binding protein 1 (Thr37/46) peptide, 60 min at 23° C.
Method: A CDK homogeneous time-resolved fluorescence (HTRF) assay was used to assess the potency of the compounds described herein.
To an untreated 384-well microtiter plate (ProxiPlate) was added 100 nL 100× test compound in DMSO and 5 μL 2×CDK enzyme in assay buffer (50 mM HEPES, 1 mM EGTA, 10 mM MgCl2, 0.01% Tween 20, 2 mM DTT). The plate was centrifuged at 800 RPM for 1 min then incubated for 20 min at 23° C. 2.5 μL per well of 4×ATP and 2.5 μL 4×ULight™-eIF4E-binding protein 1 (Thr37/46) Peptide) substrate were added to all wells. After addition, the plates were centrifuged at 800 RPM for 1 min. The plates were incubated at 23° C. for 60 min. 5 μL per well 3×EDTA solution were added to each well to stop the reaction. 2.5 μL 7×LANCE Ultra Europium-anti-phospho-eTF4E-binding protein 1 (Thr37/46 antibody) were added to each well and the plate was centrifuged for 1 min at 800 RPM. The plate was incubated for 60 min at 23° C. Fluorescence was read at 340 nm excitation and 665 nm emission on an EnVision 2105 fluorescence reader. The final concentrations of reagents in the activity assay were 3 nM CDK2/CCNE1, 1 mM ATP, 50 nM ULight™-eIF4E-binding protein 1 (Thr37/46) Peptide substrate, 1% DMSO, 10 mM EDTA, and 2 nM LANCE Ultra Europium-anti-phospho-eTF4E-binding protein 1 (Thr37/46).
Dose-response titrations were conducted by using an 11-point, three-fold serial dilution scheme typically starting at 1 μM. Signals were reported as fluorescence units at 665 nm or the ratio of fluorescence units at 665 nm/fluorescence units at 615 nm. Signals are referred to below as “Lance signals”.
Using this assay, the IC50 values of example compounds were determined.

[1] = column 25-150 nM, read-out: CDK2/CCNE IC50 25-150 nM
[2] = read-out: CDK2/CCNE IC50 >150 nM
[3] = read-out: CDK2/CCNE IC50 <25 nM

SMILES | pIC50 [1] | further results
CS(=O)(=O)c1ccc(Nc2ncc3cnn(CC4CCCCC4)c3n2)cc1 [Compound 12, 1-(cyclohexylmethyl)-N-(4-(methylsulfonyl)phenyl)-1H-pyrazolo[3,4-d]pyrimidin-6-amine] | 6.82 to 7.60 | –
CS(=O)(=O)c1ccc(Nc2ncc3cnn(CC4CCCC4)c3n2)cc1 [Compound 13, 1-(cyclopentylmethyl)-N-(4-(methylsulfonyl)phenyl)-1H-pyrazolo[3,4-d]pyrimidin-6-amine] | 6.82 to 7.60 | –
CS(=O)(=O)c1ccc(Nc2ncc3cnn(C4CCNCC4)c3n2)cc1 [Compound 14, N-(4-(methylsulfonyl)phenyl)-1-(piperidin-4-yl)-1H-pyrazolo[3,4-d]pyrimidin-6-amine] | 6.82 to 7.60 | –
CN1CCN(CCn2ncc3cnc(Nc4ccc(S(C)(=O)=O)cc4)nc32)CC1 [Compound 15, 1-(2-(4-methylpiperazin-1-yl)ethyl)-N-(4-(methylsulfonyl)phenyl)-1H-pyrazolo[3,4-d]pyrimidin-6-amine] | – | pIC50 [2]: < 6.82
CS(=O)(=O)c1ccc(Nc2ncc3cnn(C[C@H]4CC[C@@H](C(=O)O)CC4)c3n2)cc1 [Compound 16, (1s,4s)-4-((6-((4-(methylsulfonyl)phenyl)amino)-1H-pyrazolo[3,4-d]pyrimidin-1-yl)methyl)cyclohexane-1-carboxylic acid] | – | pIC50 [2]: < 6.82
CS(=O)(=O)c1ccc(Nc2ncc3cnn(C[C@H]4CC[C@@H](CO)CC4)c3n2)cc1 [Compound 17] | 6.82 to 7.60 | –
CS(=O)(=O)c1ccc(Nc2ncc3cnn(C[C@H]4CC[C@@H](C(=O)Oc5ccc(F)cc5)CC4)c3n2)cc1 [Compound 18, 4-Fluorophenyl (1s,4s)-4-((6-((4-(methylsulfonyl)phenyl)amino)-1H-pyrazolo[3,4-d]pyrimidin-1-yl)methyl)cyclohexane-1-carboxylate] | – | pIC50 [2]: < 6.82
Cc1nn(CC2CCCCC2)c2nc(Nc3ccc(S(C)(=O)=O)cc3)ncc12 [Compound 19, 1-(cyclohexylmethyl)-3-methyl-N-(4-(methylsulfonyl)phenyl)-1H-pyrazolo[3,4-d]pyrimidin-6-amine] | – | pIC50 [2]: < 6.82
OCc1cccc(Nc2ncc3cnn(CC4CCCCC4)c3n2)c1 [Compound 20, (3-((1-(cyclohexylmethyl)-1H-pyrazolo[3,4-d]pyrimidin-6-yl)amino)phenyl)methanol] | – | pIC50 [3]: > 7.60
C=CS(=O)(=O)c1ncc(Nc2ncc3cnn(CC4CCCCC4)c3n2)cn1 [Compound 21, 1-(cyclohexylmethyl)-N-(2-(vinylsulfonyl)pyrimidin-5-yl)-1H-pyrazolo[3,4-d]pyrimidin-6-amine] | 6.82 to 7.60 | –
OCCc1ccc(Nc2ncc3cnn(CC4CCCCC4)c3n2)cc1 [Compound 22, 2-(4-((1-(cyclohexylmethyl)-1H-pyrazolo[3,4-d]pyrimidin-6-yl)amino)phenyl)ethan-1-ol] | 6.82 to 7.60 | –
C=CS(=O)(=O)c1ccc(Nc2ncc3cnn(CC4CCCCC4)c3n2)cc1C [Compound 23, 1-(cyclohexylmethyl)-N-(3-methyl-4-(vinylsulfonyl)phenyl)-1H-pyrazolo[3,4-d]pyrimidin-6-amine] | 6.82 to 7.60 | –
OCc1ccc(Nc2ncc3cnn(CC4CCCCC4)c3n2)cc1 [Compound 24, (4-((1-(cyclohexylmethyl)-1H-pyrazolo[3,4-d]pyrimidin-6-yl)amino)phenyl)methanol] | 6.82 to 7.60 | –
O=Cc1ccc(Nc2ncc3cnn(CC4CCCCC4)c3n2)cc1 [Compound 25, 4-((1-(cyclohexylmethyl)-1H-pyrazolo[3,4-d]pyrimidin-6-yl)amino)benzaldehyde] | 6.82 to 7.60 | –
O=Cc1cccc(Nc2ncc3cnn(CC4CCCCC4)c3n2)c1 [Compound 26, 3-((1-(cyclohexylmethyl)-1H-pyrazolo[3,4-d]pyrimidin-6-yl)amino)benzaldehyde] | – | pIC50 [3]: > 7.60
CS(=O)(=O)c1ccc(Nc2ncc3cnn(C[C@H]4CC[C@@H](C=O)CC4)c3n2)cc1 [Compound 27, (1s,4s)-4-((6-((4-(methylsulfonyl)phenyl)amino)-1H-pyrazolo[3,4-d]pyrimidin-1-yl)methyl)cyclohexane-1-carbaldehyde] | 6.82 to 7.60 | –

SMILES | pIC50 [1] | further results
CS(=O)(=O)c1ccc(Nc2ncc3cnn(Cc4cccc5[nH]ccc45)c3n2)cc1 [Compound 29, 1-((1H-indol-4-yl)methyl)-N-(4-(methylsulfonyl)phenyl)-1H-pyrazolo[3,4-d]pyrimidin-6-amine] | 6.82 to 7.60 | –
C=C(C)S(=O)(=O)c1ccc(Nc2ncc3cnn(CC4CCCCC4)c3n2)cc1 [Compound 30, 1-(cyclohexylmethyl)-N-(4-(prop-1-en-2-ylsulfonyl)phenyl)-1H-pyrazolo[3,4-d]pyrimidin-6-amine] | 6.82 to 7.60 | –
C=CS(=O)(=O)c1ncc(Nc2ncc3cnn(CC4CCCCC4)c3n2)cc1Cl [Compound 31, N-(5-chloro-6-(vinylsulfonyl)pyridin-3-yl)-1-(cyclohexylmethyl)-1H-pyrazolo[3,4-d]pyrimidin-6-amine] | – | pIC50 [2]: < 6.82
C=CS(=O)(=O)c1ccc(Nc2ncc3cnn(CC4CCCCC4)c3n2)cn1 [Compound 34, 1-(cyclohexylmethyl)-N-(6-(vinylsulfonyl)pyridin-3-yl)-1H-pyrazolo[3,4-d]pyrimidin-6-amine] | – | pIC50 [3]: > 7.60
OCCc1cccc(Nc2ncc3cnn(CC4CCCCC4)c3n2)c1 [Compound 35, 2-(3-((1-(cyclohexylmethyl)-1H-pyrazolo[3,4-d]pyrimidin-6-yl)amino)phenyl)ethan-1-ol] | – | pIC50 [3]: > 7.60
C=CS(=O)(=O)c1ccc(Nc2ncc3cnn(CC4CCCCC4)c3n2)cc1F [Compound 36, 1-(cyclohexylmethyl)-N-(3-fluoro-4-(vinylsulfonyl)phenyl)-1H-pyrazolo[3,4-d]pyrimidin-6-amine] | 6.82 to 7.60 | –
C=CS(=O)(=O)c1c(F)cc(Nc2ncc3cnn(CC4CCCCC4)c3n2)cc1F [Compound 37, 1-(cyclohexylmethyl)-N-(3,5-difluoro-4-(vinylsulfonyl)phenyl)-1H-pyrazolo[3,4-d]pyrimidin-6-amine] | 6.82 to 7.60 | –
C#CC(=O)c1ccc(Nc2ncc3cnn(CC4CCCCC4)c3n2)cc1 [Compound 38, 1-(4-((1-(cyclohexylmethyl)-1H-pyrazolo[3,4-d]pyrimidin-6-yl)amino)phenyl)prop-2-yn-1-one] | – | pIC50 [2]: < 6.82
CS(=O)(=O)c1ccc(Nc2ncc3cnn(C4CC(=O)C4)c3n2)cc1 [Compound 39, 3-(6-((4-(methylsulfonyl)phenyl)amino)-1H-pyrazolo[3,4-d]pyrimidin-1-yl)cyclobutan-1-one] | – | pIC50 [2]: < 6.82
CN(C)[C@H]1CC[C@@H](Cn2ncc3cnc(Nc4ccc(S(C)(=O)=O)cc4)nc32)CC1 [Compound 40, 1-(((1s,4s)-4-(dimethylamino)cyclohexyl)methyl)-N-(4-(methylsulfonyl)phenyl)-1H-pyrazolo[3,4-d]pyrimidin-6-amine formate] | 6.82 to 7.60 | –
CS(=O)(=O)c1ccc(Nc2ncc3cnn(C4CCC5(CC4)COC5)c3n2)cc1 [Compound 41, N-(4-(methylsulfonyl)phenyl)-1-(2-oxaspiro[3.5]nonan-7-yl)-1H-pyrazolo[3,4-d]pyrimidin-6-amine] | 6.82 to 7.60 | –
C=CS(=O)(=O)c1ccc(Nc2ncc3cnn(CC4CCCCC4)c3n2)cc1C(F)(F)F [Compound 42, 1-(cyclohexylmethyl)-N-(3-(trifluoromethyl)-4-(vinylsulfonyl)phenyl)-1H-pyrazolo[3,4-d]pyrimidin-6-amine] | 6.82 to 7.60 | –
CC#CS(=O)(=O)c1ccc(Nc2ncc3cnn(CC4CCCCC4)c3n2)cc1 [Compound 43, 1-(cyclohexylmethyl)-N-(4-(prop-1-yn-1-ylsulfonyl)phenyl)-1H-pyrazolo[3,4-d]pyrimidin-6-amine] | – | pIC50 [2]: < 6.82
C=CC(=O)c1ccc(Nc2ncc3cnn(CC4CCCCC4)c3n2)cc1 [Compound 44, 1-(4-((1-(cyclohexylmethyl)-1H-pyrazolo[3,4-d]pyrimidin-6-yl)amino)phenyl)prop-2-en-1-one] | – | pIC50 [2]: < 6.82
CN[C@H]1CC[C@@H](Cn2ncc3cnc(Nc4ccc(S(C)(=O)=O)cc4)nc32)CC1 [Compound 45, 1-(((1s,4s)-4-(methylamino)cyclohexyl)methyl)-N-(4-(methylsulfonyl)phenyl)-1H-pyrazolo[3,4-d]pyrimidin-6-amine] | – | pIC50 [3]: > 7.60
CS(=O)(=O)c1ccc(Nc2ncc3cnn([C@@H]4CCC[C@@H](C#N)C4)c3n2)cc1 [Compound 46, (1R,3R)-3-(6-((4-(methylsulfonyl)phenyl)amino)-1H-pyrazolo[3,4-d]pyrimidin-1-yl)cyclohexane-1-carbonitrile] | – | pIC50 [3]: > 7.60
